Test results as given in patent publication US20260132160A1, “IRON REPLACEMENT TREATMENTS” (The General Hospital Corporation, priority 2022, published 2026).
Entries after “also recorded” stand apart in the source; their conditions may differ.

Experiments:
apo-transferrin = apo-transferrin (Homo sapiens, UniProt P02787); assay: Time course of Fe3+ transfer to apo-transferrin (fluorescence at 330 nm); format: biochemical; details: 40 μM Fe-BBG, 20 μM apo-transferrin, pH 7.4; instrument temporal resolution 6 s
Experimental: FIG. 5 plots the time course of Fe^3+ transfer of Fe-BBG to transferrin. The reaction was monitored through the quenching of apo-transferrin intrinsic fluorescence (conditions: 40 μM Fe-BBG, 20 μM apo-transferrin, 50 mM HEPES buffer supplemented with 25 mM HCO3, pH 7.4; 25° C. λEx=280 nm.). Fe^3+ transfer from Fe-BBG to apo-transferrin was complete within 6 s. The temporal resolution of the instrument is 6 s, and the reaction is too fast for us to quantify kinetics.

[1] = Ascorbate reduction challenge (UV-vis); format: physicochemical; details: 0.1 mM Fe-BBG, 0.1 mM sodium ascorbate, pH 7.4
[2] = Pharmacokinetics by dynamic magnetic resonance imaging; format: in vivo; details: mouse
From the text: Fe-BBG is paramagnetic, which enables us to monitor Fe-BBG blood clearance and excretion through dynamic magnetic resonance imaging.

normal male C57BL/6 mice = assay: Serum nonheme iron parameters after i.v. injection (ferrozine assay); format: in vivo, mouse
Experimental: The in vivo efficacy of Fe-BBG as a direct-to-transferrin Fe replacement drug was preliminary evaluated in normal male C57BL/6mice. Mice received either 0.01 mmol Fe-BBG/kg (0.56 μg Fe per g body weight), 0.1 mmol Fe-BBG/kg (5.6 μg Fe per g body weight), or placebo (saline vehicle) via tail vein injection and were euthanized either 5 min, 60 min or 100 min post-injection. Serum nonheme iron parameters were then quantified using the spectrophotometric ferrozine assay.
FIG. 9 compares serum iron, total iron binding capacibity (TIBC), and unbound iron binding capacity (UIBC), recorded in mice treated with placebo and in serum harvested either 5 min, 60 min, or 100 min after Fe-BBG injection. The percentage transferrin saturation (% TSAT) was calculated at the 60 min and 100 min time points, at which point Fe-BBG and the BBG ligand remaining after trans-chelation with apo-transferrin had diminished to levels that will not interfere with the spectrophotometric assay.

[3] = Labile iron in serum after i.v. injection (dihydrorhodamine 123 oxidation); format: in vivo, mouse
Experimental: These are the same serum samples as in FIG. 9. The assay was performed as described in Blood 2003, 102 (7), 2670-2677.
To quantify labile iron released by Fe-BBG after intravenous injection, male C57BL/6 mice received either 0.01 mmol Fe-BBG/kg (0.56 μg Fe per g body weight), 0.1 mmol Fe-BBG/kg (5.6 μg Fe per g body weight), or placebo (saline vehicle) via tail vein injection and were euthanized either 5 min, 60 min or 100 min post-injection. Blood serum was harvested and labile Fe in each sample quantified by spectrophotometrically monitoring the rate of dihydrorhodamine 123 oxidation under redox forcing conditions, as reported in Blood 2003, 102 (7), 2670-2677 and described below:
Quadruplicates of 20 μL serum were transferred to clear-bottom 96-well plates. To 2 of the wells was added 180 μL iron-free HEPES buffered saline (HBS) (preincubated at 37° C.) containing 40 μM ascorbate and 50 µM dihydrorhodamine 123 (DHR). […] The kinetics of fluorescence increase were followed at 37° C. in a Molecular Devices FlexStation 3 microplate reader with 485/538 nm excitation/emission filter pair, for 40 minutes, with readings every 2 minutes. The slopes (R) of DHR fluorescence intensity with time were calculated from measurements taken between 16 and 40 minutes and are given as FU·minute^−1 (fluorescence units per minute). […]

Tmprss6 knockout mice = assay: Therapeutic efficacy in mouse model of iron refractory iron deficiency anemia; format: in vivo
Experimental: Tmprss6 knockout mice received 29 intraperitoneal injections each containing 25 μg Fe as Fe-BBG (1.3±0.18 μg Fe per gram body weight, N=5 mice, 2 male, 3 female) or containing saline (placebo, N=5 mice, 2 male, 3 female) over 15 days. The cumulative dose of Fe was 725 μg Fe (37±0.53 μg Fe per gram body weight). The mice were euthanized 120 min after the final injection. Blood was harvested for measurement of complete blood counts, and nonheme Fe parameters. Bone marrow and liver tissue were analyzed by qPCR for expression of genes related to erythropoietic activity, Fe exposure, oxidative stress, and inflammation, the data are tabulated in FIG. 15. Clinical chemistry was also recorded, see Example 16 below. FIG. 15 data are shown as mean±standard deviation. Statistical differences between groups were determined by two-tailed Student's t-test for normally distributed values or Mann-Whitney (/test for non-normally distributed values. Significant differences are indicated by *P<0.05, **P<0.01, ****P<0.0001.

[4] = 0.56 or 5.6 μg Fe per g i.v., 5, 60, 100 min, vs placebo
[5] = 29 i.p. injections of 25 μg Fe over 15 days, vs placebo
[6] = 120 min after final injection, vs placebo

Chain of apo-transferrin (P02787 20-698): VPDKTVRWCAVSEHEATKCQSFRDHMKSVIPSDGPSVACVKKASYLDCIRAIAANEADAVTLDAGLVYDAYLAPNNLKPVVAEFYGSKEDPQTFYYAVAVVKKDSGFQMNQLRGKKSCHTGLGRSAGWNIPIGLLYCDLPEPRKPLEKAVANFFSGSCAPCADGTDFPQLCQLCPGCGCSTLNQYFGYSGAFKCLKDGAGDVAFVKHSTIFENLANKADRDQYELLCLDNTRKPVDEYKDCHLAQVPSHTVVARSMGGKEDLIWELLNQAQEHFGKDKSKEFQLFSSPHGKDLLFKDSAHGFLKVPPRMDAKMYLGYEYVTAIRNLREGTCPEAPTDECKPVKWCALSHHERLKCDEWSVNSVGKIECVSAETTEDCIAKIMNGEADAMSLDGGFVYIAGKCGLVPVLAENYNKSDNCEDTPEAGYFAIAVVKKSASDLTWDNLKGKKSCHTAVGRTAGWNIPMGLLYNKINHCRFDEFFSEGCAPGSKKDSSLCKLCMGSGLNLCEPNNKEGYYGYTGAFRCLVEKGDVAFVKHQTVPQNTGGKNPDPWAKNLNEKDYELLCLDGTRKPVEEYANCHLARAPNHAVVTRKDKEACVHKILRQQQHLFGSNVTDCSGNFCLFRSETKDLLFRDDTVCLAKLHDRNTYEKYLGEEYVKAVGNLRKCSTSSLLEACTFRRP

time to complete Fe^3+ transfer to apo-transferrin (apo-transferrin): ≤ 6 s | 462 nm absorption peak upon challenge with ascorbate [1]: remains unchanged | blood elimination half life (vena cava MR signal) ([2]; 0.14 mmol/kg injection, monoexponential fit): 5.5 ± 2.8 min | hepatobiliary excretion (liver, gallbladder, bowel enhancement) ([2]; MRI): partial hepatobiliary excretion | labile Fe concentration in serum ([3]; 5 min after injection of 5.6 μg Fe/g): < 0.2 µM | clearance of Fe-BBG from serum (Tmprss6 knockout mice; 120 min after the final injection): cleared entirely
Compound: O.O.O=C([O-])CC[C@H]1C(=O)[O][Fe]2[O]c3ccccc3CN1Cc1ccccc1[O]2 [Fe-BBG]
renal excretion (kidney enhancement) ([2]; MRI): rapid elimination through the kidneys; also recorded: rapid urinary excretion | serum iron (normal male C57BL/6 mice; [4]): rapidly raises | total iron binding capacity (TIBC) (normal male C57BL/6 mice; [4]): rapidly raises; also recorded: does not decrease | unbound iron binding capacity (UIBC) (normal male C57BL/6 mice; 0.56 or 5.6 μg Fe per g i.v., vs placebo): does not reduce UIBC significantly | percentage transferrin saturation (% TSAT) (normal male C57BL/6 mice; 60 and 100 min, vs placebo): elevates % TSAT significantly | total serum nonheme Fe relative to placebo treated mice (normal male C57BL/6 mice; 5 min after 5.6 μg Fe/g): 25 fold | labile iron release in vivo ([3]; 0.56 or 5.6 μg Fe per g, 5, 60, 100 min): does not contribute detectable quantities of labile Fe; also recorded: does not release labile iron in vivo | hematocrit (Tmprss6 knockout mice; [5]): increased significantly | hemoglobin (Tmprss6 knockout mice; [5]): significant elevation | mean corpuscle volume (Tmprss6 knockout mice; [5]): significantly increased | red cell width (Tmprss6 knockout mice; [5]): significantly increased | mean % TSAT increase (Tmprss6 knockout mice; [6]): ~7 fold | serum Fe (Tmprss6 knockout mice; [6]): elevated | total iron binding capacity (TIBC) (Tmprss6 knockout mice; [6]): unchanged relative to placebo | unbound iron binding capacity (UIBC) (Tmprss6 knockout mice; [6]): concomitant decrease | bone marrow erythroferrone (Erfe) expression (Tmprss6 knockout mice; qPCR): significantly downregulated | glycophorin A (GypA) expression (Tmprss6 knockout mice; qPCR, bone marrow): downregulated | transferrin receptor type 1 (Tfrc) expression (Tmprss6 knockout mice; qPCR, bone marrow): downregulated | other hematology parameters (Tmprss6 knockout mice; vs placebo): No noteworthy differences
